Assay [1] addresses T1, recombinant human B1 receptors (Homo sapiens, UniProt P46663).
T1 construct: host or cells: CHO (CHO-B1)
T1 sequence (P46663 1-353): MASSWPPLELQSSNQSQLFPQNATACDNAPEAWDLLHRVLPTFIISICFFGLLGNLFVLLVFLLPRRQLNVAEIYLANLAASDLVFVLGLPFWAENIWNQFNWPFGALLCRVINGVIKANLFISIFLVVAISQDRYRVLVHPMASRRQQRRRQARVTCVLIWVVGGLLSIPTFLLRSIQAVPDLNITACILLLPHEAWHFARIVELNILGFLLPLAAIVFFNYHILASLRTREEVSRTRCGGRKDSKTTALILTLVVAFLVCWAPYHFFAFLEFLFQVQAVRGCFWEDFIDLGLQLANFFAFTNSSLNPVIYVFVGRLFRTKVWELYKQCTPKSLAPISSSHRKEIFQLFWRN
Nature of the assay: Functional assay: antagonist potency by cytosolic calcium measurement (fluo-4, plate reader fluorimeter) in CHO-B1 cells. The note with it: CHO-B1 cells, inhibition of LysDABK (EC80)-evoked [Ca2+]i elevation; read-out: B1 func. The format is cell-based. As to the method: Assessment of Antagonist Potency at B1 and B2 Receptors In Vitro by Measurement of Cytosolic Calcium Ion Concentration with a Plate Reader Fluorimeter in Cells Expressing Recombinant Human B1 or B2 Receptors
Chinese hamster ovary (CHO) cells stably expressing recombinant human B1 (CHO-B1, Euroscreen) or B2 (CHO-B2, Perkin-Elmer) receptors were cultured in Dulbecco's Modified Eagle's Medium (DMEM) containing 10% Fetal Calf Serum (FCS), 100 U/ml penicillin, 0.1 mg/ml streptomycin, 0.25 μg/ml amphotericin B, 1% Minimum Essential Medium Eagle (MEM), non essential amino acid solution, […], 1% pyruvate (for the B2 cell line). Cells were kept at 37° C. in a humidified incubator in an atmosphere of 5% CO2/95% air and were passaged 1:4 three times a week. Cells were plated at 1.5-2.5×10^4 cell/well on standard 96-well microplates, measurements of cytosolic calcium ion concentration ([Ca^2+]i) were carried out 1-2 days after cell plating.
Measurements of [Ca^2+]i were carried out on CHO-B1 and CHO-B2 cells stably expressing human B1 and B2 receptors, respectively. Cells were grown in standard 96-well microplates and before the measurement were loaded with a fluorescent Ca^2+-sensitive dye, fluo-4/AM (2 μM): after removing the culture medium the dye was added to the cells (dissolved in assay buffer: 145 mM NaCl, 5 mM KCl, 2 mM MgCl2, 2 mM CaCl2, 10 mM HEPES, 20 mM D-glucose, 2 mM probenecid, 100 μl/well) and cells were incubated at 37° C. in a humidified incubator in an atmosphere of 5% CO2/95% air for 40-120 min. To stop dye loading cells were washed twice with assay buffer. After washing, various concentrations of the test compounds (diluted in extracellular medium from a DMSO stock solution, final DMSO concentration was <0.1%) or buffer were added to each well depending on the experimental setup. After incubation at 37° C. for 20-25 min. baseline and agonist-evoked changes of [Ca^2+]i were measured column by column with a plate reader fluorimeter (Fluoroskan Ascent, Labsystems). Excitation and detection of emission was carried out from the bottom of the plate. Filters used for Fluo-4: excitation filter—485 nm, emission filter—538 nm. The whole measurement process was performed at 37° C. and was controlled by custom software Inhibitory potency of the test compounds was assessed by measuring the reduction in the agonist-evoked [Ca^2+]i-elevation in the presence of different concentrations of the compounds. The agonists were LysDABK for CHO-B1, and bradykinin for CHO-B2 cells. Agonists were applied at an EC80 concentration, the EC80-values were derived from daily determined dose-response curves. Fluorescence data were expressed as ΔF/F (fluorescence change normalized to baseline). All treatments on a single plate were measured in multiple wells. Data from all wells with the same treatment were averaged and the average values were used for analysis. Inhibitory potency of a compound at a single concentration point was expressed as percent inhibition of the control agonist response. Sigmoidal concentration-inhibition curves were fitted to the data (derived from at least three independent experiments) and IC50-values were determined as the concentration that produces half of the maximal inhibition caused by the compound.

The target in assay [2] is T2, human recombinant bradykinin B1 receptor (Homo sapiens, UniProt P46663).
T2 construct: host or cells: CHO cells
T2 sequence (P46663 1-353): T1 sequence (P46663 1-353)
As to the kind of experiment: Human recombinant bradykinin B1 receptor binding. As to conditions: CHO cell membranes, [3H]-[Des-Arg10] Kallidin radioligand; read-out: B1 binding. Here is the method:
1. Human Recombinant Bradykinin B1 Receptor Binding
Binding assays were carried out on human recombinant bradykinin) receptors (expressed in CHO cells) according to the Euroscreen Technical Data Sheet (Cat.No.:ES-091). 20 μg protein/tube was incubated with [3,4-prolyl-3,4-^3H(N)]-[Des-Arg^10] Kallidin as radioligand. Non specific binding was determined in the presence of 10 μM Lys-des-Arg^9-Bradykinin. The final incubation volume was 250 μl. Samples were incubated for 15 min. at 25° C. then were rapidly vacuum filtered through GF/B filters presoaked for at least 1 h in 0.5% PEI. Radioactivity was determined by liquid scintillation spectroscopy.

The structures appear in SMILES notation. pIC50, pKi: −log10 of the molar value. Structures can show the parent of a compound that is named as a salt.

Consider `C[C@H](NC(=O)c1ccc(S(=O)(=O)Nc2ccccc2Oc2ccc(Cl)cc2Cl)cc1)C(=O)NCC1CCNCC1` [Example 8, 4-[2-(2,4-Dichloro-phenoxy)-phenylsulfamoyl]-N—{(S)-1-[(piperidin-4-ylmethyl)-carbamoyl]-ethyl}-benzamide hydrochloride], for which the pIC50 in assay [1] is more than 7.70. In assay [2], the pKi was more than 7.70.

As for `O=C(CNC(=O)c1ccc(S(=O)(=O)Nc2ccccc2Oc2ccc(Cl)cc2Cl)cc1)NCCN1CCCC1` [Example 31, 4-[2-(2,4-Dichloro-phenoxy)-phenylsulfamoyl]-N-[(2-pyrrolidin-1-yl-ethylcarbamoyl)-methyl]-benzamide], the pIC50 in assay [1] is more than 7.70. In addition, in assay [2], the pKi is more than 7.70.

Take `O=C(CNC(=O)c1ccc(S(=O)(=O)Nc2ccccc2Oc2ccc(Cl)cc2Cl)cc1)NCCCn1ccnc1` [Example 29, 4-[2-(2,4-Dichloro-phenoxy)-phenylsulfamoyl]-N-[(3-imidazol-1-yl-propylcarbamoyl)-methyl]-benzamide]: in assay [1], the pIC50 was more than 7.70. Also, in assay [2], the pKi was more than 7.70.

In the case of `O=C(CNC(=O)c1ccc(S(=O)(=O)Nc2ccccc2Oc2ccc(Cl)cc2Cl)cc1)NCCCCN1CCCCC1` [Example 63, 4-[2-(2,4-Dichloro-phenoxy)-phenylsulfamoyl]-N-[(4-piperidin-1-yl-butylcarbamoyl)-methyl]-benzamide], in assay [1], the pIC50 was more than 7.70. Further, in assay [2], the pKi is more than 7.70.

Source of the values: US20130029991A1, “New Phenylsulfamoyl Benzamide Derivatives as Bradykinin Antagonists” (priority 2006, published 2013).
